# In paper PMC8215115, “Systemically Achievable Doses of Beer Flavonoids Induce Estrogenicity in Human Endometrial Cells and Cause Synergistic Effects With Selected Pesticides” (Frontiers in Nutrition, 2021):
# Entries after “also recorded” stand apart in the source; their conditions may differ.
# Key:
# [1] = humans, extract from hops containing 0.25 mg 8PN; cited from earlier work
# [2] = Pharmacokinetics of 8PN in humans receiving an extract from hops; format: in vivo; conditions: consumption of 0.5–1 L of average-hopped beer, assuming linear kinetics
# Description: (§1) An often-used justification for discarding endocrine disrupting phytoestrogens in beer as a health concern is that the low bioavailability of hop polyphenols would limit systemically achieved doses to non-hazardous concentrations. At first sight, this notion seems to be supported by pharmacokinetic studies. […] This might partially result from the additional formation of 8PN from the naturally co-occurring iX, the most prevalent prenylflavonoid in beer ([24]), within the human gut ([18]) and liver ([31]). This reaction should be regarded as a metabolic activation due to the much higher estrogenicity of the reaction product. Assuming linear kinetics, the consumption of 0.5–1 L of average-hopped beer (Table 2) could result in systemic 8PN concentrations around 0.5 nM, a dose sufficient to cause significant estrogenicity in our in vitro test system (Figure 2).
# Ishikawa cells [3] = assay: Sulforhodamine B (SRB) cell viability assay; format: cell-based, human; conditions: for cytotoxicity at highest applied concentration / Onset of cytotoxicity (lowest observed effect level), LOEL: Ishikawa cells; for cytotoxicity at highest applied concentration: 48 h; for Onset of cytotoxicity (lowest observed effect level), LOEL: 48 h incubation, at least three independent SRB assays
# Description: To ensure that effects observed in ALP assays were not caused by cytotoxicity, SRB cell viability assays were carried out in parallel. As with estrogenicity assays, 10,000 cells/well were seeded in 96-well plates, allowed to grow for 48 h and incubated with test solutions for another 48 h. Afterwards, cells were fixed by addition of 50% (v/v) trichloroacetic acid and 1 h incubation at 4°C. After 2 times washing with tab water and 2 times of washing with 1% (v/v) acetic acid, plates were dried overnight, incubated with SRB reagent for 45 min, washed twice with water, twice with 1% acetic acid and again dried overnight. Lastly, 10 mM TRIS base buffer was added to dissolve protein-bound SRB and the absorbance of each well was measured at 570 nm with a PerkinElmer Victor 3V^TM plate reader.
# To ensure non-cytotoxicity and thus to exclude false reporting anti-estrogenic effects, SRB cell viability assays were carried out in parallel (Ishikawa cells, 48 h incubation) to ALP assays. The single pesticides Dic, End, Fen and Met caused cytotoxic effects at high concentrations, with the lowest observed effect doses reported in Table 3. iX lead to a loss of cellular protein at the highest applied dose of 100 μM, a concentration which was however not applied in ALP assays.
# [4] = system: ER-dependent induction of ALP expression in Ishikawa cells; assay: Alkaline phosphatase (ALP) assay for estrogenicity; format: cell-based, human; conditions: for lowest concentration inducing ALP expression (starting from): single compound; for plateau of enzymatic (ALP) activity: relative to 1 nM E2 = 100%
# Description: In the present study, five exemplary pesticides (Figure 1B) were selected based on at least one published report of them acting as ER agonists, among them the publicly discussed herbicide glyphosate (GLP). Alkaline phosphatase (ALP) expression in Ishikawa cells was used as a natural reporter gene system for estrogenicity. On the contrary to some other in vitro test systems, this human endometrial cancer cell line expresses both, ER-α and ER-β, and thus facilitates the observation of interactions between chemicals acting as agonists to different receptor isoforms ([22]). Measuring the ALP-catalyzed conversion rate of 4-nitrophenyl phosphate to 4-nitrophenol as a marker for enzyme expression and thus ER activation, the test compounds were tested individually and in combination to generally address the concern of cumulative effects within this class of pesticides. To enable a direct comparison of effect strength, the same test system was used to determine the estrogenicity of a mixture of the most important hop polyphenols, resembling their respective concentration ratios in beer. Lastly, the two mixtures were combined in different ratios to assess potential combinatory effects toward ER activation.
# ALP assays were performed as recently described ([23]). Briefly, 10,000 Ishikawa cells per well were seeded in 96-well plates and allowed to attach for 48 h in assay medium (phenol red - free DMEM/F-12 supplemented with 1% (v/v) CD-FBS and 1% (v/v) P/S). Stock solutions were prepared by solving test compounds in DMSO, which were then diluted to the test concentrations in assay medium, resulting in a final DMSO concentration of 0.1–0.2% (v/v) (depending on the number of mixed compounds in incubation solutions, but consistently reflected by the same concentration in the respective solvent control). Cells were incubated with incubation solutions containing the test compounds or combinations thereof for another 48 h. Subsequently, cells were washed with PBS and lyzed by shock-freezing. ALP activity was determined by monitoring the conversion of 4-nitrophenyl phosphate to 4-nitrophenol photometrically at 405 nm with a PerkinElmer Victor 3V^TM plate reader. The slope of the obtained dose-response curves was taken as a measure for the ER-dependent induction of ALP expression.
# In brief, this method uses the mass-action law-derived median-effect equation (MDEE) to linearize dose-response curves of single compounds and combinations thereof. Subsequently, it facilitates the calculation of a parameter (the CI) which is indicative for the type and strength of a combinatory effect. […] To apply the model to ALP assay data, the latter were normalized to both, the solvent control and the positive control (1 nM E2, 100% effect). MDEE fitting and CI calculations were carried out using the CISNE tool ([26]) and MS Excel. Corresponding graphs and all further statistical calculations (normal distribution, one-way ANOVA, etc.) were carried out in Origin® 2020.
# [5] = system: MCF-7 breast cancer cells; set-up: method as in PMID 28711546; conditions: cited from earlier work
# [6] = set-up: method as in PMID 24038952; conditions: humans, 20 mg of XN; cited from earlier work
# [7] = system: ER-dependent induction of ALP expression in Ishikawa cells; set-up: method as in PMID 30283786; conditions: cited from earlier work
# [8] = Human intervention study, pharmacokinetics of XN; format: in vivo; conditions: plasma, 20 mg, estimated from CMax/AUC assuming standard physiological parameters, read-out: bioavailability (rough estimate)
# Description: as §1
# Ishikawa cells [9] = conditions: cited from earlier work
# [10] = Ishikawa cells, 48 h, scaled to 1 nM E2 = 100%
smiles,measurement,setting,value
"CC(C)=CCc1c(O)cc(O)c2c1O[C@H](c1ccc(O)cc1)CC2=O [8PN, 8-prenylnaringenin]",AUC,[1],24.3 ± 8.9 ng·h/mL
same,CMax,[1],1.4 ± 0.3 µg/L
same,Cmax,[1],3.8 nM
same,estimated systemic concentration,[2],around 0.5 nM
same,cytotoxicity at highest applied concentration,Ishikawa cells [3]; 500 nM,no cytotoxicity
same,ED50 of ALP induction,[4]; [10],2.44 ± 1.60 nM
same,lowest concentration inducing ALP expression (starting from),"[4]; Ishikawa cells, 48 h",0.5 nM
same,plateau of enzymatic (ALP) activity,[4],about 75%
"OC(c1ccc(Cl)cc1)(c1ccc(Cl)cc1)C(Cl)(Cl)Cl [Dic, dicofol]","Onset of cytotoxicity (lowest observed effect level), LOEL",Ishikawa cells [3],50 µM
same,lowest concentration inducing ALP expression (starting from),"[4]; Ishikawa cells, 48 h",10 nM
"O=S1OCC2C(CO1)C1(Cl)C(Cl)=C(Cl)C2(Cl)C1(Cl)Cl (stereo not shown) [End, endosulfan]","Onset of cytotoxicity (lowest observed effect level), LOEL",Ishikawa cells [3],50 µM
same,lowest concentration inducing ALP expression (starting from),"[4]; Ishikawa cells, 48 h",5 nM
same,ED50 of ALP induction,[4]; calculated with the CISNE tool,12300 ± 2900 nM
"OC(c1ccc(Cl)cc1)(c1cncnc1)c1ccccc1Cl (stereo not shown) [Fen, fenarimol]","Onset of cytotoxicity (lowest observed effect level), LOEL",Ishikawa cells [3],100 µM
same,lowest concentration inducing ALP expression (starting from),"[4]; Ishikawa cells, 48 h",2.5 nM
"O=C(O)CNCP(=O)(O)O [Glp, glyphosate]",cytotoxicity,Ishikawa cells [3]; concentrations up to 300 μM,neither ER-mediated gene expression nor cytotoxicity
same,cytotoxicity at highest applied concentration,Ishikawa cells [3]; up to 500 μM,no cytotoxicity
same,concentration causing estrogen-like growth stimulation,[5],≥ 59 µM
same,ER-mediated gene expression (ALP),[4]; concentrations up to 300 μM,neither ER-mediated gene expression nor cytotoxicity; also recorded: did not act estrogenic
"C[C@]12CC[C@@H]3c4ccc(O)cc4C[C@@H](CCCCCCCCC[S+]([O-])CCCC(F)(F)C(F)(F)F)[C@H]3[C@@H]1CC[C@@H]2O (stereo partly shown) [ICI 182,780, fulvestrant, reference compound]",effect of co-incubation on estrogenicity of active compounds,[4]; co-incubation with active concentrations of the compounds,suppression of estrogenicity
"CNC(=O)Oc1cc(C)c(SC)c(C)c1 [Met, methiocarb]","Onset of cytotoxicity (lowest observed effect level), LOEL",Ishikawa cells [3],100 µM
same,lowest concentration inducing ALP expression (starting from),"[4]; Ishikawa cells, 48 h",10 nM
"COc1cc(O)c(CC=C(C)C)c(O)c1C(=O)/C=C/c1ccc(O)cc1 [XN, xanthohumol]",area under the curve (AUC),[6],92 ± 68 ng·h/mL
same,peak plasma concentration (CMax),[6],33 ± 7 µg/L
same,estrogenicity in this test system,[7],not to act estrogenic
same,bioavailability,[8],~2%
same,cytotoxicity in this experimental setup,Ishikawa cells [9],non-cytotoxicity
"COc1cc(O)c(CC=C(C)C)c2c1C(=O)CC(c1ccc(O)cc1)O2 (stereo not shown) [iX, isoxanthohumol]","Onset of cytotoxicity (lowest observed effect level), LOEL",Ishikawa cells [3],100 µM
same,ED50 of ALP induction,[4]; [10],342 ± 125 nM
same,lowest concentration inducing ALP expression (starting from),"[4]; Ishikawa cells, 48 h",100 nM
same,plateau of enzymatic (ALP) activity,[4],about 75%
